Assay results from PMC5840146, “Structure-Activity Relationship Analysis of 3-Phenylcoumarin-Based Monoamine Oxidase B Inhibitors” (Frontiers in Chemistry, 2018).
Like-named read-outs stand apart in the source and are kept apart here.

Key:
[1] = target: T1, MAO-B (Homo sapiens, UniProt P27338); settings: cited from earlier work; for pIC50: MAO-B; for IC50: read-out: MAO-B inhibition IC50
T1 construct: purchased Sigma-Aldrich
T1 sequence (P27338 1-520): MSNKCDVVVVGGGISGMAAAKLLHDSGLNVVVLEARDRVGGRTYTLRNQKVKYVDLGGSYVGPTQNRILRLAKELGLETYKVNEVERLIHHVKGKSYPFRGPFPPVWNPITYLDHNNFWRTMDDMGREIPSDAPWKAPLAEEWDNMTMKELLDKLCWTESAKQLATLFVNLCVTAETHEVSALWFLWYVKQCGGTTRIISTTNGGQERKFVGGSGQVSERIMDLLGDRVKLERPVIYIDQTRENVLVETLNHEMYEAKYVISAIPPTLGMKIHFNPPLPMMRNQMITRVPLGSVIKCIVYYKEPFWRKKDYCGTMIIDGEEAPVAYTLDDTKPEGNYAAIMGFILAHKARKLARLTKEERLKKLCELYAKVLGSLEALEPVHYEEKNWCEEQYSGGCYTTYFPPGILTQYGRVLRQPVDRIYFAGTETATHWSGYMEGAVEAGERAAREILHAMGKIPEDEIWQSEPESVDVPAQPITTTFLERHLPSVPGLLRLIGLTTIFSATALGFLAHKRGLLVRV

[2] = target: T1, MAO-B; assay: MAO-B inhibition of prior 3-phenylcoumarins (literature data); assay type: biochemical; settings: LiPE = pIC50 - QPlogPo/w, literature IC50
[3] = from literature IC50 ref Serra et al., 2012
[4] = prior 3-phenylcoumarins ref Serra et al., 2012
[5] = from literature IC50 ref Matos et al., 2010
[6] = prior 3-phenylcoumarins ref Matos et al., 2010
[7] = from literature IC50 ref Matos et al., 2011b
[8] = prior 3-phenylcoumarins ref Matos et al., 2011b
[9] = from literature IC50 ref Matos et al., 2009, 2011a
[10] = prior 3-phenylcoumarins ref Matos et al., 2009, 2011a
[11] = from literature IC50 ref Matos et al., 2011a
[12] = prior 3-phenylcoumarins ref Matos et al., 2011a

Row | SMILES | LiPE [2] | pIC50 [1, 11] | IC50 [1, 12] [nM] | other results
1 | COc1ccc(-c2c(O)c3cc(C)ccc3oc2=O)cc1Cl [CHEMBL1934676] | 0.88 | – | – | pIC50 [1, 3]: 4.37; IC50 [1, 4]: 42700 nM
2 | Cc1cc(Br)c2oc(=O)c(-c3ccccc3)cc2c1 [CHEMBL1221930] | 0.95 | – | – | pIC50 [1, 5]: 4.96; IC50 [1, 6]: 11000 nM
3 | COc1cc(Br)cc2cc(-c3ccccc3)c(=O)oc12 [CHEMBL1777814] | 3.35 | – | – | pIC50 [1, 7]: 7.08; IC50 [1, 8]: 83.5 nM
4 | COc1ccc(-c2cc3cc(C)ccc3oc2=O)cc1 [CHEMBL572233] | 4.41 | – | – | pIC50 [1, 9]: 7.88; IC50 [1, 10]: 13.1 nM
5 | Cc1ccc(-c2cc3cc(OC4CCCC4)ccc3oc2=O)cc1 [CHEMBL1835227] | 0.14 | 4.84 | 14500 | –
6 | Cc1ccc2oc(=O)c(-c3ccccc3Br)cc2c1 [CHEMBL1221929] | 1.46 | – | – | pIC50 [1, 5]: 5.37; IC50 [1, 6]: 4300 nM
7 | Cc1ccc(-c2cc3cc(O)ccc3oc2=O)cc1 [CHEMBL1835225] | 4.42 | 7.17 | 67.1 | –
8 | COc1ccc(-c2c(O)c3cc(Cl)ccc3oc2=O)cc1Cl [CHEMBL1934677] | 1.88 | – | – | pIC50 [1, 3]: 5.55; IC50 [1, 4]: 2790 nM
9 | COc1ccc(-c2cc3cc(C)ccc3oc2=O)cc1OC [CHEMBL1835230] | 5.04 | 8.56 | 2.73 | –
10 | COc1cc(OC)cc(-c2cc3cc(C)cc(Br)c3oc2=O)c1 [CHEMBL1221981] | 1.02 | – | – | pIC50 [1, 5]: 5.15; IC50 [1, 6]: 7120 nM
11 | COc1cc(-c2cc3cc(C)ccc3oc2=O)cc(OC)c1OC [CHEMBL1783716] | 3.18 | – | – | pIC50 [1, 9]: 6.79; IC50 [1, 10]: 161 nM
12 | Cc1ccc2oc(=O)c(-c3ccccc3O)cc2c1 [CHEMBL1835327] | 4.08 | 6.92 | 120 | –
13 | O=c1oc2c(O)cc(Br)cc2cc1-c1ccc(O)cc1 [CHEMBL1777849] | 2.46 | – | – | pIC50 [1, 7]: 4.77; IC50 [1, 8]: 16900 nM
14 | COc1cccc(-c2cc3cc(C)ccc3oc2=O)c1 [CHEMBL570731] | 5.64 | 9.10 | 0.8 | –
15 | CC(=O)COc1ccc2oc(=O)c(-c3ccc(C)cc3)cc2c1 [CHEMBL1835226] | 2.32 | 5.26 | 5520 | –
16 | Cc1ccc2oc(=O)c(-c3ccccc3)cc2c1 [CHEMBL1783714] | 3.08 | – | – | pIC50 ([1]; from literature IC50 ref Matos et al., 2009, 2011a, Viña et al., 2012b): 6.55; IC50 ([1]; prior 3-phenylcoumarins ref Matos et al., 2009, 2011a, Viña et al., 2012b): 284 nM

Row | SMILES | LiPE [2] | pIC50 [1, 11] | IC50 [1, 12] [nM] | other results
17 | COc1cc(-c2cc3cc(C)cc(Br)c3oc2=O)cc(OC)c1OC [CHEMBL1221982] | 1.09 | – | – | pIC50 [1, 5]: 5.31; IC50 [1, 6]: 4890 nM
18 | COc1ccc2oc(=O)c(-c3ccc(C)cc3)cc2c1 [CHEMBL1835224] | 5.35 | 8.82 | 1.52 | –
19 | CC(=O)COc1cccc(-c2cc3cc(C)ccc3oc2=O)c1 [CHEMBL1835328] | 3.80 | 6.74 | 180 | –
20 | O=c1oc2c(O)cc(Br)cc2cc1-c1ccccc1 [CHEMBL1777847] | 1.45 | – | – | pIC50 [1, 7]: 4.51; IC50 [1, 8]: 30900 nM
21 | COc1ccc(-c2c(O)c3cc(C)ccc3oc2=O)cc1 [CHEMBL1934673] | 1.53 | – | – | pIC50 [1, 3]: 4.49; IC50 [1, 4]: 32000 nM
22 | O=c1oc2ccccc2cc1-c1ccccc1 [CHEMBL510349] | 1.47 | – | – | pIC50 ([1]; from literature IC50 ref Viña et al., 2012b): 4.93; IC50 ([1]; prior 3-phenylcoumarins ref Viña et al., 2012b): 11800 nM
23 | COc1cc(OC)cc(-c2cc3cc(C)ccc3oc2=O)c1 [CHEMBL1783715] | 4.52 | – | – | pIC50 [1, 9]: 8.05; IC50 [1, 10]: 8.98 nM
24 | COc1ccc(-c2cc3cc(Br)cc(OC)c3oc2=O)cc1 [CHEMBL1777845] | 5.09 | – | – | pIC50 [1, 7]: 8.87; IC50 [1, 8]: 1.35 nM
25 | COc1cc(-c2cc3cc(C)ccc3oc2=O)ccc1Br [CHEMBL1835232] | 4.41 | 8.49 | 3.25 | –
26 | COc1ccc2oc(=O)c(-c3cccc(C)c3)cc2c1 [CHEMBL1835223] | 4.30 | 7.77 | 17.1 | –
27 | COc1ccc(-c2cc3cc(C)cc(Br)c3oc2=O)cc1 [CHEMBL1221980] | 1.42 | – | – | pIC50 [1, 5]: 5.49; IC50 [1, 6]: 3230 nM
28 | COc1ccc(-c2c(O)c3ccccc3oc2=O)cc1 [CHEMBL1917495] | 1.49 | – | – | pIC50 [1, 3]: 4.16; IC50 [1, 4]: 69600 nM
29 | Cc1ccc2oc(=O)c(-c3cccc(O)c3)cc2c1 [CHEMBL1835326] | 3.44 | 6.19 | 650 | –
30 | COc1ccc(-c2cc3cc(C)ccc3oc2=O)cc1Br [CHEMBL1835231] | 5.05 | 9.13 | 0.74 | –
31 | Cc1cccc(-c2cc3cc(C)ccc3oc2=O)c1 [CHEMBL1835229] | 4.09 | 7.82 | 15 | –
32 | COc1cc(OC)c(Br)c(-c2cc3cc(C)ccc3oc2=O)c1 [CHEMBL1835233] | 0.20 | 4.27 | 54000 | –
